# Reference: US9187411B2, “Leukotriene B4 antagonist compound” (Eli Lilly and Company, priority 2012, dated 2015)
# What was measured:
# [1] = system: LTB4-induced phosphorylation of ERK in monocytes; experiment: Human pERK assay in whole blood; format: cell-based; conditions: Monocyte, 10 nM LTB4
# Protocol: (§1) The ability of the compound of Example 2 to block LTB4-induced signaling through BLT1 was assessed in whole blood obtained from healthy human volunteers and from 129SvEv mice that are the model strain for preclinical AAA efficacy evaluation.
# Whole blood is collected from human donors in 10 mL K2 ethylenediaminetetraacetic acid (EDTA) vacutainer tubes (BD Biosciences). Aliquots of whole blood are pre-warmed at 37° C. for 20 min. 10 point dose response curves of test compounds are assayed at final concentrations of 20 nM-10 μM. 10 point ½ serial dilutions of compound at 1000× of final assayed concentration are prepared in DMSO. Compound is then diluted to 10× in Dulbecco's Phosphate Buffered Saline (DPBS) (DMSO concentration is now 1%). 10 μL of compound dilutions (at 10× in DPBS) or 1% DMSO in DPBS are added to wells of a 2.0 mL volume 96 deep well plate (Nunc) and placed in 37° C. heat block.
# Immediately thereafter, 80 μL whole blood is added and incubated for 20 min at 37° C. […] Samples are warmed to room temperature and analyzed on a Beckman Coulter FC500 flow cytometer. […] Data are analyzed with WinList software (Verity Software House) to determine mean and median fluorescent intensity values for pERK-PE from monocyte population.
# [2] = system: LTB4-induced phosphorylation of ERK in monocytes; experiment: Mouse pERK assay in whole blood; format: cell-based, 129SvEv mice; conditions: Monocyte, 20 nM LTB4
# Protocol: as §1
# Whole blood is collected from 129SvEv mice in 50 mM EDTA (Gibco). For in vitro experiments, 10 point dose response curves of test compounds are assayed at final concentrations of 20 nM-10 μM. 10 point ½ serial dilutions of compound at 1000× of final assayed concentration are prepared in DMSO. Compound is then diluted to 10× in DPBS (DMSO concentration is now 1%). 10 μL of compound dilutions (at 10× diluted in DPBS) or 1% DMSO in DPBS are added to wells of a 96 deep well plate. 80 μL whole blood is added and incubated for 20 min at room temperature (10 μL of anti-mouse LY6G-FITC antibody (BD Pharmingen) and 10 μl of anti-mouse CD11b-APC BD Biosciences at 1 μg/mL final concentrations are added for final 10 min) 11 μL of 10× pre-warmed LTB4 (final concentration 20 nM) is added and incubated at 37° C. for 2 min. Reaction is stopped with 1.5 mL of 1× Phosflow Lyse/Fix from BD Biosciences (pre-warmed to 37° C.). The plate is sealed, vortexed, and incubated at 37° C. for 10 min. Cells are washed once with 1.5 mL DPBS then permeablized with 1 mL BD Perm/Wash buffer (BD Biosciences) for 10 min at room temperature. […]
# [3] = system: LTB4-induced CD11b expression in neutrophils; experiment: CD11b assay, human whole blood; format: cell-based; conditions: Neutrophil, 10 nM LTB4
# Protocol: EDTA anti-coagulated blood is collected from human donors or mice as before. For in vitro experiments, 8 or 10 point dose response curves of test compounds are assayed at final concentrations of 78 nM-10 μM or 20 nM-10 μM respectively. ½ serial dilutions of compound at 1000× of final assayed concentration are prepared in DMSO. Compound is then diluted to 10× in DPBS (DMSO concentration is now 1%). 10 μL of compound dilutions (at 10× in DPBS) or 1% DMSO in DPBS are added to wells of a 96 deep well plate. 90 μL whole blood is added and incubated 20 min at room temperature. 11 μL of 10×LTB4 (final concentration 25 nM for mouse or 10 nM human) is added and incubated at 37° C. for 30 min. The reaction is stopped by incubating the plate on ice for 5 min. The cells are stained with 10 μL anti-mouse or anti-human CD11b-PE (BD Biosciences diluted 1:20 for mouse and undiluted for human) and incubated on ice for 30 min in the dark (for mouse experiments, 10 μL anti-mouse LY6G-FITC antibody (BD Pharmingen) diluted 1:25 is added for the final 10 min) Red blood cells (RBCs) are lysed by adding 1.5 mL of 1×BD FACSlyse (BD Biosciences) and incubating for 10 min at room temperature in the dark. […] Data are analyzed with WinList software (Verity Software House) to determine mean and median fluorescent intensity values for CD11b-PE from neutrophil population.
# [4] = Exposure (AUC) in the LDLr KO mouse atherosclerosis study; conditions: male, LDLr KO (JAX #002207), in vivo, LDLr KO mice
# Source text: LDLr KO mice (JAX #002207), 7 week old males, were obtained from The Jackson Laboratory (Bar Harbor, Me.). Upon arrival at the testing facility and continuing for a total of 10 weeks, mice were housed individually and fed the atherogenic diet TD.88137 (Teklad) ad libitum. During the first 6 weeks, the mice rested undisturbed in their cages. During the last 4 weeks, the mice received the test compound twice daily by oral gavage.
smiles,measurement,setting,value
"CCCc1c(NC(=O)CC(C)(C)C(=O)[O-])cccc1OCCCOc1cc(O)c(-c2ccc(F)cc2)cc1CC.[Na+] [Example 2, Sodium 4-[[3-[3-[2-ethyl-4-(4-fluorophenyl)-5-hydroxy-phenoxy]propoxy]-2-propyl-phenyl]amino]-2,2-dimethyl-4-oxo-butanoate]",IC50,[1],814 nM
same,IC50,[2],243 nM
same,IC50,[3],193 nM
same,AUC,[4]; 3 mg/kg BID oral gavage,1110 ng·h/mL
same,AUC,[4]; 10 mg/kg BID oral gavage,5380 ng·h/mL
same,AUC,[4]; 30 mg/kg BID oral gavage,12800 ng·h/mL
